For the assay, the system named is primary DRG neuron. Description: Axon growth of primary DRG neurons (immunofluorescence, Neuro J). To be noted: 24 hours; for fold induction at 10 µM: Mus musculus, multiple of total axon length of a single DRG neuron relative to blank control group. The assay is classed as cell-based, C57BL/6J mice. As for the experimental part: Diabetic peripheral neuropathy involved a sensory neuron first, and a main pathological change was axonal atrophy and degeneration, or even disappearance. […] Therefore, the compounds in the examples were added with the primary DRG neuron to incubate for a certain period of time, then the axon growth of the DRG neuron was detected by immunofluorescence, and an axon length was quantified by Neuro J, so as to evaluate the promotion effect of the compound on the axon growth of the peripheral sensory neuron.
Primary antibodies of mice anti-β-tubulin III used for fluorescent staining were purchased from Sigma Company, cell culture reagents were all purchased from Gibco Company, and DRG neuronal cells were taken from C57BL/6J mice. Specific experimental steps were as follows: fresh DRG of the C57 mice was extracted to digest into a single-cell suspension and then inoculated into a culture plate for adherent culture overnight, with vinblastine as a positive drug, the to-be-detected compounds S1 to S87 ([…]) synthesized in the above examples were given to incubate for 24 hours, then an original culture medium was removed, 4% paraformaldehyde was added into each well to fix for 15 minutes after PBS washing, the mixture was permeabilized with 0.3% TritonX-100 for 5 minutes and sealed at room temperature with 4% BSA for 1 hour, a primary antibody (1:1000) was incubated at 4° C. overnight, a goat anti-mouse fluorescent secondary antibody (1:300) was incubated at room temperature in the dark for 1 hour, and a sealed slide was imaged by a fluorescence microscope (Leica). According to the image, a total axon length of a single DRG neuron was tracked by a Neuro J plug-in in Image J software, and a multiple of the total axon length relative to that of the blank control group was calculated.

These results are taken from US12600724B2, “Indole alkaloid and preparation method and use thereof” (NANJING UNIVERSITY OF CHINESE MEDICINE, priority 2022, dated 2026).

A word on the fold induction: it is the ratio of treated to control signal. A high value points to a large rise in signal.

For `CC[C@@]12C=C(C(=O)NCC(=O)O)n3c4c(c5ccccc53)CCN(CCC1)[C@H]42` [Compound S66], the fold induction at 10 µM came out at 12.8. For the same molecule, the “Promotion of axon growth of the primary DRG neuron compared with the positive drug (in words)” value (10 μm) is recorded as “more outstanding effect”.

`CC[C@@]12C=C(C(=O)N[C@@H](CC(C)C)C(=O)O)n3c4c(c5ccccc53)CCN(CCC1)[C@H]42` [Compound S67] had a fold induction at 10 µM of 11.3.

Take `CC[C@@]12C=C(C(=O)N[C@@H](CO)C(=O)O)n3c4c(c5ccccc53)CCN(CCC1)[C@H]42` [Compound S68]: the fold induction at 10 µM amounted to 11.

The molecule `CC[C@@]12C=C(C(=O)N[C@H](C(=O)O)C(C)O)n3c4c(c5ccccc53)CCN(CCC1)[C@H]42` (some centres unmarked) [Compound S69] came in with a fold induction at 10 µM of 12.3.

For the molecule `CC[C@@]12C=C(C(=O)N[C@@H](CC(=O)O)C(=O)O)n3c4c(c5ccccc53)CCN(CCC1)[C@H]42` [Compound S70], the fold induction at 10 µM worked out at 10.8.

`CC[C@@]12C=C(C(=O)N[C@@H](CC(N)=O)C(=O)O)n3c4c(c5ccccc53)CCN(CCC1)[C@H]42` [Compound S71]: the fold induction at 10 µM came out at 10.5.

`CC[C@@]12C=C(C(=O)N[C@@H](CN)C(=O)O)n3c4c(c5ccccc53)CCN(CCC1)[C@H]42` [Compound S72] registered a fold induction at 10 µM of 11.3.

In turn, `CC[C@@]12C=C(C(=O)N[C@@H](C)C(=O)O)n3c4c(c5ccccc53)CCN(CCC1)[C@H]42` [Compound S73] gave a fold induction at 10 µM of 12.1.

In turn, `CC[C@@]12C=C(C(=O)N[C@H](C(=O)O)C(C)C)n3c4c(c5ccccc53)CCN(CCC1)[C@H]42` [Compound S74] gave a fold induction at 10 µM of 10.9.

The molecule `CC[C@@]12C=C(C(=O)N[C@@H](Cc3ccccc3)C(=O)O)n3c4c(c5ccccc53)CCN(CCC1)[C@H]42` [Compound S75] gave a fold induction at 10 µM of 10.7.

The molecule `CC[C@@]12C=C(C(=O)NCC(=O)N[C@@H](CS)C(=O)O)n3c4c(c5ccccc53)CCN(CCC1)[C@H]42` [Compound S76] gave a fold induction at 10 µM of 11.1.

For `CC[C@@]12C=C(C(=O)NCC(=O)N[C@@H](CC(N)=O)C(=O)O)n3c4c(c5ccccc53)CCN(CCC1)[C@H]42` [Compound S77], the fold induction at 10 µM amounted to 10.8.

On to `CC[C@@]12C=C(C(=O)NCC(=O)N[C@@H](Cc3ccc(O)cc3)C(=O)O)n3c4c(c5ccccc53)CCN(CCC1)[C@H]42` [Compound S78], for which the fold induction at 10 µM was found to be 10.2.

On to `CC[C@@]12C=C(C(=O)NCC(=O)N[C@@H](CC(C)C)C(=O)O)n3c4c(c5ccccc53)CCN(CCC1)[C@H]42` [Compound S79], for which the fold induction at 10 µM turned out to be 10.6.

Turning to `CC[C@@]12C=C(C(=O)NCC(=O)N[C@H](C(=O)O)C(C)C)n3c4c(c5ccccc53)CCN(CCC1)[C@H]42` [Compound S80], the fold induction at 10 µM came to 11.3.

Molecule `CC[C@@]12C=C(C(=O)NCC(=O)N[C@@H](CO)C(=O)O)n3c4c(c5ccccc53)CCN(CCC1)[C@H]42` [Compound S81] came in with a fold induction at 10 µM of 11.9.

The molecule `CC[C@@]12C=C(C(=O)N[C@@H](C)C(=O)OC)n3c4c(c5ccccc53)CCN(CCC1)[C@H]42` [Compound S82] came in with a fold induction at 10 µM of 12.5.

In turn, `CC[C@@]12C=C(C(=O)NCC(=O)OC)n3c4c(c5ccccc53)CCN(CCC1)[C@H]42` [Compound S83] displayed a fold induction at 10 µM of 12.7.

Regarding `CC[C@@]12C=C(C(=O)N[C@H](C(=O)OC)C(C)C)n3c4c(c5ccccc53)CCN(CCC1)[C@H]42` [Compound S84], the fold induction at 10 µM was 11.

Molecule `CC[C@@]12C=C(C(=O)N[C@@H](CO)C(=O)OC)n3c4c(c5ccccc53)CCN(CCC1)[C@H]42` [Compound S85] yielded a fold induction at 10 µM of 11.8.

In turn, `CC[C@@]12C=C(C(=O)NCC(=O)N[C@@H](CC(C)C)C(=O)OC)n3c4c(c5ccccc53)CCN(CCC1)[C@H]42` [Compound S86] gave a fold induction at 10 µM of 11.

In the case of `CC[C@]12CCCN3CCc4c(n(c5ccccc45)[C@@](O)(C(=O)OC)C1)[C@@H]32` [Vincamine, reference compound], the fold induction at 10 µM is 9.5.
